Where a name gives a salt, the structure may show the parent alone. Read-outs that look alike come from different tables or passages of the source.
Target: T1, PD-1/PD-L1 interaction (PD-1-Ig / PD-L1-His) (Homo sapiens, UniProt Q9NZQ7)
T1 construct: hPDL1(18-239)-TVMV-His; TVMV protease site linker (C); made in house; host or cells: HEK293T
Experiment: PD-1/PD-L1 Homogenous Time-Resolved Fluorescence (HTRF) binding assay
Conditions: PD-L1-His 10 nM, PD-1-Ig 20 nM, read-out: Range or IC50
How it was run: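 Human PD-L1-His (10 nM final) was pre-incubated with inhibitor for 15 min, then PD-1-Ig (20 nM final) was added for a further 15 min in dPBS with 0.1% BSA and 0.05% Tween-20. Binding was detected by HTRF using Eu-cryptate anti-Ig (1 nM) and APC anti-His (20 nM).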

T1 sequence (Q9NZQ7 with tags, fused parts or gaps): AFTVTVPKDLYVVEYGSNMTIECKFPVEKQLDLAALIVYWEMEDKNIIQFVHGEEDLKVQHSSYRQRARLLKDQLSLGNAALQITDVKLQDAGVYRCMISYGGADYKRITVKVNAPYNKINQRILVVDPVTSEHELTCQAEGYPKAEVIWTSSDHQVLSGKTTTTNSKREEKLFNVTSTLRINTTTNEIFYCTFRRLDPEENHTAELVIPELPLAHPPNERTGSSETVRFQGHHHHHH

| IC50 (IC50 range class) [nM] | IC50 (numeric IC50) [nM] | Compound |
| --- | --- | --- |
| 1000 to 10000 |  | O=C(NCCCOc1cccc(-c2cccc(OCCCNC(=O)C(O)CO)c2Cl)c1Cl)C(O)CO (stereo not shown) [Example 2135, N,N′-(((2,2′-dichloro-[1,1′-biphenyl]-3,3′-diyl)bis(oxy))bis(propane-3,1-diyl))bis(2,3-dihydroxypropanamide)] |
|  | 3450 | O=C(O)C[C@@H](O)C(=O)NCCCOc1cccc(-c2cccc(OCCCNC(=O)[C@H](O)CC(=O)O)c2Cl)c1Cl [Example 2136, (3R,3′R)-4,4′-((((2,2′-dichloro-[1,1′-biphenyl]-3,3′-diyl)bis(oxy))bis(propane-3,1-diyl))bis(azanediyl))bis(3-hydroxy-4-oxobutanoic acid)] |
| 0.04 to 20 |  | Cc1c(OCCCN2CC[C@@H](O)C2)cccc1-c1cccc(OCCCN2CC[C@@H](O)C2)c1C [Example 3001, (3R,3′R)-1,1′-(((2,2′-dimethyl-[1,1′-biphenyl]-3,3′-diyl)bis(oxy))bis(propane-3,1-diyl))bis(pyrrolidin-3-ol)] |
| 0.04 to 20 |  | Cc1c(OCCCCCN2CC[C@@H](O)C2)cccc1-c1cccc(OCCCN2CC[C@@H](O)C2)c1C [Example 3003, (R)-1-(3-((3′-((5-((R)-3-hydroxypyrrolidin-1-yl)pentyl)oxy)-2,2′-dimethyl-[1,1′-biphenyl]-3-yl)oxy)propyl)pyrrolidin-3-ol] |
| 1000 to 10000 |  | Cc1cc(OCCCN2CC[C@@H](O)C2)ccc1-c1cccc(OCCCCCN2CC[C@@H](O)C2)c1C [Example 3005, (R)-1-(3-((3′-((5-((R)-3-hydroxypyrrolidin-1-yl)pentyl)oxy)-2,2′-dimethyl-[1,1′-biphenyl]-4-yl)oxy)propyl)pyrrolidin-3-ol] |
| 1000 to 10000 |  | Cc1cc(OCCCN2CC[C@@H](O)C2)ccc1-c1cccc(OCCCN2CC[C@@H](O)C2)c1C [Example 3006, (3R,3′R)-1,1′-(((2,2′-dimethyl-[1,1′-biphenyl]-3,4′-diyl)bis(oxy))bis(propane-3,1-diyl))bis(pyrrolidin-3-ol)] |
| 0.04 to 20 |  | Cc1c(OCCCN(C)C)cccc1-c1cccc(OCCCN2CC[C@@H](O)C2)c1C [Example 3007, (R)-1-(3-((3′-(3-(dimethylamino)propoxy)-2,2′-dimethyl-[1,1′-biphenyl]-3-yl)oxy)propyl)pyrrolidin-3-ol] |
| 1000 to 10000 |  | Cc1c(OCCCN2CC[C@@H](O)C2)cccc1-c1cccc(C(=O)NCCCCN2CC[C@@H](O)C2)c1C [Example 3008, N-(4-((R)-3-hydroxypyrrolidin-1-yl)butyl)-3′-(3-((R)-3-hydroxypyrrolidin-1-yl)propoxy)-2,2′-dimethyl-[1,1′-biphenyl]-3-carboxamide] |
| 1000 to 10000 |  | Cc1c(OCCCN2CC[C@@H](O)C2)cccc1-c1cccc(C(=O)NCCCN2CC[C@@H](O)C2)c1C [Example 3009, 3′-(3-((R)-3-hydroxypyrrolidin-1-yl)propoxy)-N-(3-((R)-3-hydroxypyrrolidin-1-yl)propyl)-2,2′-dimethyl-[1,1′-biphenyl]-3-carboxamide] |
|  | 10000 | Cc1c(OCCCN2CC[C@@H](O)C2)cccc1-c1cccc(S(=O)(=O)NCCCN(C)C)c1C [Example 3010, (R)—N-(3-(dimethylamino)propyl)-3′-(3-(3-hydroxypyrrolidin-1-yl)propoxy)-2,2′-dimethyl-[1,1′-biphenyl]-3-sulfonamide] |
| 20.1 to 90 |  | Cc1c(OCCCN2CC[C@@H](O)C2)cccc1-c1cccc(OCc2cncc(C#N)c2)c1C [Example 3011] |
| > 10000 |  | Cc1cc(OCCCN2CC[C@@H](O)C2)ccc1-c1ccc(OCCCN2CC[C@@H](O)C2)cc1C [Example 3012, (3R,3′R)-1,1′-(((2,2′-dimethyl-[1,1′-biphenyl]-4,4′-diyl)bis(oxy))bis(propane-3,1-diyl))bis(pyrrolidin-3-ol)] |
| 1000 to 10000 |  | Cc1c(NC(=O)CCN2CC[C@@H](O)C2)cccc1-c1cccc(OCCCN2CC[C@@H](O)C2)c1C [Example 3013, 3-((R)-3-hydroxypyrrolidin-1-yl)-N-(3′-(3-((R)-3-hydroxypyrrolidin-1-yl)propoxy)-2,2′-dimethyl-[1,1′-biphenyl]-3-yl)propanamide] |
| > 10000 |  | Cc1c(NC(=O)NCCC(=O)O)cccc1-c1cccc(OCCCN2CC[C@@H](O)C2)c1C [Example 3014, (R)-3-(3-(3′-(3-(3-hydroxypyrrolidin-1-yl)propoxy)-2,2′-dimethyl-[1,1′-biphenyl]-3-yl)ureido)propanoic acid] |
| > 10000 |  | Cc1c(OCCCN2CC[C@@H](O)C2)cccc1-c1cccc(C(=O)NCCN2CC[C@@H](O)C2)c1C [Example 3015, N-(2-((R)-3-hydroxypyrrolidin-1-yl)ethyl)-3′-(3-((R)-3-hydroxypyrrolidin-1-yl)propoxy)-2,2′-dimethyl-[1,1′-biphenyl]-3-carboxamide] |
| > 10000 |  | Cc1c(OCCCN2CC[C@@H](O)C2)cccc1-c1cccc(S(=O)(=O)NCCN2CC[C@@H](O)C2)c1C [Example 3016, N-(2-((R)-3-hydroxypyrrolidin-1-yl)ethyl)-3′-(3-((R)-3-hydroxypyrrolidin-1-yl)propoxy)-2,2′-dimethyl-[1,1′-biphenyl]-3-sulfonamide] |
| 1000 to 10000 |  | Cc1c(NC(=O)NCCN2CC[C@@H](O)C2)cccc1-c1cccc(OCCCN2CC[C@@H](O)C2)c1C [Example 3017, 1-(2-((R)-3-hydroxypyrrolidin-1-yl)ethyl)-3-(3′-(3-((R)-3-hydroxypyrrolidin-1-yl)propoxy)-2,2′-dimethyl-[1,1′-biphenyl]-3-yl)urea] |
| 90.1 to 1000 |  | Cc1c(NCCCN2CC[C@@H](O)C2)cccc1-c1cccc(OCCCN2CC[C@@H](O)C2)c1C [Example 3018, (R)-1-(3-((3′-(3-((R)-3-hydroxypyrrolidin-1-yl)propoxy)-2,2′-dimethyl-[1,1′-biphenyl]-3-yl)amino)propyl)pyrrolidin-3-ol] |
|  | 106 | Cc1c(OCCCN2CC[C@@H](O)C2)cccc1-c1cccc(OCc2cccc(C#N)c2)c1C [Example 3019, (R)-3-(((3′-(3-(3-hydroxypyrrolidin-1-yl)propoxy)-2,2′-dimethyl-[1,1′-biphenyl]-3-yl)oxy)methyl)benzonitrile] |
| 1000 to 10000 |  | Cc1c(OCCCN2CC[C@@H](O)C2)cccc1-c1cccc(S(=O)(=O)NCCC(=O)O)c1C [Example 3020, (R)-3-(3′-(3-(3-hydroxypyrrolidin-1-yl)propoxy)-2,2′-dimethyl-[1,1′-biphenyl]-3-ylsulfonamido)propanoic acid] |
| > 10000 |  | Cc1ccccc1-c1ccc(OCCCN2CC[C@H](O)C2)c(OCCCN2CC[C@H](O)C2)c1 [Example 3021, (3S,3′S)-1,1′-(((2′-methyl-[1,1′-biphenyl]-3,4-diyl)bis(oxy))bis(propane-3,1-diyl))bis(pyrrolidin-3-ol)] |
| > 10000 |  | Cc1c(OCCCN2CC[C@@H](O)C2)cccc1-c1ccc(OCCCN2CC[C@H](O)C2)c(OCCCN2CC[C@H](O)C2)c1 [Example 3022, (3S,3′S)-1,1′-(((3′-(3-((R)-3-hydroxypyrrolidin-1-yl)propoxy)-2′-methyl-[1,1′-biphenyl]-3,4-diyl)bis(oxy))bis(propane-3,1-diyl))bis(pyrrolidin-3-ol)] |
| 90.1 to 1000 |  | Cc1c(OCCCN2CC[C@@H](O)C2)cccc1-c1cccc(OCCCN2CC[C@@H](O)C2)c1 [Example 3023, (3R,3′R)-1,1′-(((2-methyl-[1,1′-biphenyl]-3,3′-diyl)bis(oxy))bis(propane-3,1-diyl))bis(pyrrolidin-3-ol)] |
|  | 12 | Cc1c(OCCCN2CC[C@@H](O)C2)cccc1-c1cccc(OCCCN2CC[C@@H](O)C2)c1Cl [Example 3024, (3R,3′R)-1,1′-(((2-chloro-2′-methyl-[1,1′-biphenyl]-3,3′-diyl)bis(oxy))bis(propane-3,1-diyl))bis(pyrrolidin-3-ol)] |
| 90.1 to 1000 |  | Cc1c(OCCCN2CC[C@@H](O)C2)cccc1-c1cccc(OCCCN2CC[C@@H](O)C2)c1C#N [Example 3025, 3,3′-bis(3-((R)-3-hydroxypyrrolidin-1-yl)propoxy)-2′-methyl-[1,1′-biphenyl]-2-carbonitrile] |
| 90.1 to 1000 |  | Cc1c(OCCCN2CC[C@@H](O)C2)cccc1-c1cccc(OCCCN2CC[C@@H](O)C2)c1C(F)(F)F [Example 3026, (3R,3′R)-1,1′-(((2-methyl-2′-(trifluoromethyl)-[1,1′-biphenyl]-3,3′-diyl)bis(oxy))bis(propane-3,1-diyl))bis(pyrrolidin-3-ol), 2 TFA] |
| 1000 to 10000 |  | Cc1c(OCCCN2CC[C@@H](O)C2)cccc1-c1cccc(OCCCc2ccccc2)c1 [Example 3027, (R)-1-(3-((2-methyl-3′-(3-phenylpropoxy)-[1,1′-biphenyl]-3-yl)oxy)propyl)pyrrolidin-3-ol] |
| 20.1 to 90 |  | Cc1c(OCCCN2CC[C@@H](O)C2)cccc1-c1cccc(OCCCN2CCC(O)(c3ccccc3)C2)c1C (stereo partly drawn) [Example 3028, 1-(3-((3′-(3-((R)-3-hydroxypyrrolidin-1-yl)propoxy)-2,2′-dimethyl-[1,1′-biphenyl]-3-yl)oxy)propyl)-3-phenylpyrrolidin-3-ol, 2 TFA] |
| 0.04 to 20 |  | Cc1c(OCCCN2CC[C@@H](O)C2)cccc1-c1cccc(OCC2CCCN(C)C2)c1C (stereo partly drawn) [Example 3029, (3R)-1-(3-((2,2′-dimethyl-3′-((1-methylpiperidin-3-yl)methoxy)-[1,1′-biphenyl]-3-yl)oxy)propyl)pyrrolidin-3-ol] |

| Compound | IC50 (IC50 range class) [nM] | IC50 (numeric IC50) [nM] |
| --- | --- | --- |
| Cc1c(OCCCCN2CC[C@@H](O)C2)cccc1-c1cccc(OCCCN2CC[C@@H](O)C2)c1C [Example 3002, (R)-1-(3-((3′-(4-((R)-3-hydroxypyrrolidin-1-yl)butoxy)-2,2′-dimethyl-[1,1′-biphenyl]-3-yl)oxy)propyl) pyrrolidin-3-ol] | 0.04 to 20 |  |
| Cc1cc(OCCCN2CC[C@@H](O)C2)ccc1-c1cccc(OCCCCN2CC[C@@H](O)C2)c1C [Example 3004, (R)-1-(3-((3′-(4-((R)-3-hydroxypyrrolidin-1-yl)butoxy)-2,2′-dimethyl-[1,1′-biphenyl]-4-yl)oxy)propyl) pyrrolidin-3-ol] | 1000 to 10000 |  |

From patent US10144706B2 (BRISTOL-MYERS SQUIBB COMPANY, priority 2016, dated 2018)
